Several values for one entry are separate records, joined by “and”; a condition that tells them apart may be missing. Equal entries are not always repeated.
Legend:
[1] = test system: 3-enzyme system (S-ADH coupled to lactate dehydrogenase and pyruvate oxidase); assay: S-ADH coupled to H2O2 formation electrochemical assay (3-enzyme system), interference compounds; type: biochemical, X. autotrophicus Py2; details: for interference with the acetone measurement (current response): Acetone plus 10 mM ethanol, 50 μM isopropanol or 50 μM isobutanol, data not shown
Protocol: Secondary alcohol dehydrogenase coupled to H2O2 formation electrochemical assay. […] Before measurements the electrode surface was polished using Al2O3 paste for 1 min. and then rinsed with deionized water, sonicated for 1 min. and rinsed with water again. The polished Pt electrode was then pretreated electrochemically by applying 10 cycles of 100 mV/s from +200 mV to +900 mV. All potentials were referenced versus a Ag/AgCl electrode (BAS part number MF-2078). Assays contained potassium phosphate (100 mM, pH 7.2), purified S-ADH (1 U/mL), NADH (201 μM), lactate (100 mM), lactate dehydrogenase (5 U/mL), pyruvate oxidase (4 U/mL), flavin adenine dinucleotide (0.01 mM), cocarboxylase (0.2 mM), in a total volume of 0.5 mL. […] After a 2 min. incubation period, the potential was stepped from open circuit to 350 mV.

S-ADH from C. boidinii = assay: S-ADH spectrophotometric assay, C. boidinii S-ADH; type: biochemical, Candida boidinii; details: pH 7.6, 5 mM substrate; for Relative S-ADH Activity (%) C. boidinii, alcohol oxidation: alcohol oxidation rates, 0.2 mM NAD+, 2-propanol = 100; for Relative S-ADH Activity (%) C. boidinii, ketone reduction: ketone reduction rates, 0.2 mM NADH, acetone = 100
Protocol: Assays were performed in 2 mL quartz cuvettes and contained NAD(H) (0.2 mM), potassium phosphate buffer (25 mM), and a source of enzyme (cell-free extracts, column fractions, or purified enzyme) in a total reaction volume of 1 mL at pH 6.2 ([…]) at 30° C. Assays were pre-incubated for 1.5 min. at 30° C. with all assay components except substrate. […]

S-ADH from strain IP-1 = assay: S-ADH spectrophotometric assay, partially purified S-ADH of isolate IP-1; type: biochemical, isopropanol-grown bacterial strain TDCC IP-1; details: for Relative S-ADH Activity (%) IP-1, alcohol oxidation: alcohol oxidation rates, pH 7.6, 2.5 mM substrate, 0.2 mM NAD+, 2-propanol = 100, NA = no activity detected; for Relative S-ADH Activity (%) IP-1, ketone reduction: ketone reduction rates, pH 6.2, 2.5 mM substrate, 0.2 mM NADH, acetone = 100
Protocol: Protein purifications. […] Secondary alcohol dehydrogenase (S-ADH) from X. autotrophicus Py2 was purified via the following protocol. Cell-free extracts (380 mL) of isopropanol-grown X. autotrophicus Py2 (150 g) were prepared as described above, and applied to a 5×15 cm column of DEAE-Sepharose FAST FLOW (Diethylaminoethyl cross-linked agarose bead material; Catalog number 17-0709-10, Amersham Pharmacia Biotech, Piscataway, N.J.)) equilibrated in buffer A (25 mM MOPS (3-(N-morpholino)propanesulfonic acid), pH 7.6, 5% glycerol, 1 mM dithiothreitol) at a flow rate of 10 mL/min. After loading, the column was washed with […] buffer A and developed with a 2400 mL linear gradient of 90-290 mM KCl in buffer A. Fractions containing S-ADH activity were pooled and dialyzed against 2 L of 25 mM potassium phosphate (pH 6.2) containing 5% glycerol (buffer B) for 16 h at 4° C. […] After washing the column with 30 mL of buffer B, S-ADH was eluted with 20 mL of buffer A containing 10 mM NAD^+. Fractions containing S-ADH were then dialyzed against 2 L of buffer A for 16 h at 4° C., concentrated by ultrafiltration (using a YM30 ultrafiltration membrane; catalog no. 13722, from Millipore, Bedford, Mass.), and frozen in liquid nitrogen. Partially purified S-ADH from bacterial screen cultures was prepared as follows: cell-free extracts from 1 to 5 g of cell paste were prepared as described above and applied to a 5 mL HI TRAP Q column (quaternary, tetraethylammonium, cross-linked agarose bead material for use as an anion exchange matrix; catalog number 17-1153-01, Amersham Pharmacia Biotech) equilibrated in 100 mM MOPS, pH 7.6, containing 5% (v/v) glycerol (buffer C). The column was washed with 10 mL buffer C and developed with a 100 mL linear gradient of 0 to 100 mM NaCl in buffer C. Fractions containing S-ADH activity were pooled, concentrated to 0.5 mL using a 30 kDa MWCO (“molecular weight cut-off”) centrifugal membrane (catalog number UFV4BTK25, Millipore), and stored at −80° C.
(§1) Assays were performed in 2 mL quartz cuvettes and contained NAD(H) (0.2 mM), potassium phosphate buffer (25 mM), and a source of enzyme (cell-free extracts, column fractions, or purified enzyme) in a total reaction volume of 1 mL at pH 6.2 ([…]) at 30° C. Assays were pre-incubated for 1.5 min. at 30° C. with all assay components except substrate. Assays were initiated by addition of substrate (2.5 mM) and monitored over time by measuring the change in absorbance at 340 nm (∈340 of 6.22 mM^−1·cm^−1 for NADH).

[2] = test system: S-ADH purified from M vaccae strain JOB-5; details: M vaccae enzyme; alcohols oxidized, acetone reduced; cited from earlier work
[3] = test system: S-ADH from X. autotrophicus strain Py2; assay: Secondary alcohol dehydrogenase NADH oxidation spectrophotometric assay; type: biochemical, Xanthobacter autotrophicus strain Py2; details: for Relative S-ADH Activity (%) X. Py2, alcohol oxidation: alcohol oxidation rates, pH 7.6, 2.5 mM substrate, 0.2 mM NAD+, 2-propanol = 100, NA = no activity detected; for specific activity, alcohol oxidation: at pH 7.8; for inhibition of S-ADH activity: saturating acetone, alcohol at about 13-fold over the Km value for acetone, data not shown; for Relative S-ADH Activity (%) X. Py2, ketone reduction: ketone reduction rates, pH 6.2, 2.5 mM substrate, 0.2 mM NADH, acetone = 100
Protocol: as §1
Data analysis. Kinetic constants (Km and Vmax) were calculated by fitting initial rate data to the Michaelis-Menten equation and using the software KaleidaGraph Fourth Edition, (Synergy Software, Reading, Pa.).

CC(C)O [2-Propanol]
interference with the acetone measurement (current response) [1]: do not interfere
Relative S-ADH Activity (%) C. boidinii, alcohol oxidation (S-ADH from C. boidinii): 100%
Relative S-ADH Activity (%) IP-1, alcohol oxidation (S-ADH from strain IP-1): 100%
Km [2]: 50 µM
Relative S-ADH Activity (%) X. Py2, alcohol oxidation [3]: 100%
specific activity, alcohol oxidation [3]: 24±1.8 μmol alcohol oxidized min^−1mg^−1 protein

CCO [Ethanol]
interference with the acetone measurement (current response) [1]: do not interfere
Relative S-ADH Activity (%) C. boidinii, alcohol oxidation (S-ADH from C. boidinii): 9%
Relative S-ADH Activity (%) IP-1, alcohol oxidation (S-ADH from strain IP-1): 9%
S-ADH activity in the presence of ethanol ([3]; 41 mM ethanol, equivalent to 500 ppm (v/v) gas phase ethanol): 82-85%
specific activity, alcohol oxidation [3]: No activity
inhibition of S-ADH activity [3]: no inhibition was observed

CC(C)=O [Acetone, acetone]
Relative S-ADH Activity (%) C. boidinii, ketone reduction (S-ADH from C. boidinii): 100%
Relative S-ADH Activity (%) IP-1, ketone reduction (S-ADH from strain IP-1): 100%
Km [2]: 300 µM
Relative S-ADH Activity (%) X. Py2, ketone reduction [3]: 100%
Km ([3]; reduction of acetone to isopropanol, NADH at fixed saturating concentration, read-out: apparent Km): ~144 µM and 144 µM

CCC(C)O (stereo not drawn) [2-Butanol]
Relative S-ADH Activity (%) C. boidinii, alcohol oxidation (S-ADH from C. boidinii): 100%
Relative S-ADH Activity (%) IP-1, alcohol oxidation (S-ADH from strain IP-1): 147%
Relative S-ADH Activity (%) X. Py2, alcohol oxidation [3]: 88%
specific activity, alcohol oxidation [3]: 21±3.6 μmol alcohol oxidized min^−1mg^−1 protein and 37±1.1 μmol alcohol oxidized min^−1mg^−1 protein

CCCO [1-Propanol]
Relative S-ADH Activity (%) C. boidinii, alcohol oxidation (S-ADH from C. boidinii): 9%
Relative S-ADH Activity (%) IP-1, alcohol oxidation (S-ADH from strain IP-1): 2%
Km [2]: 8100 µM
specific activity, alcohol oxidation [3]: No activity
inhibition of S-ADH activity [3]: no inhibition was observed

CCC(C)=O [2-Butanone]
current response relative to acetone ([1]; 50 μM butanone): equivalent to 50 μM acetone
Relative S-ADH Activity (%) C. boidinii, ketone reduction (S-ADH from C. boidinii): 175%
Relative S-ADH Activity (%) IP-1, ketone reduction (S-ADH from strain IP-1): 192%
Relative S-ADH Activity (%) X. Py2, ketone reduction [3]: 170%
